Source: patent US6348468B1, “Pyridazine compounds and compositions containing the same” (Kowa Co., Ltd., priority 1997, dated 2002)

Tested on: Interleukin-1β (IL-1β) Production
Experiment: Inhibitory activity against interleukin-1β production (LPS-stimulated HL-60 cells, ELISA)
Format: cell-based
Details: Homo sapiens, 72 h, lipopolysaccharide 10 μg/ml, culturing for 3 days
Experimental: HL-60 cells were cultured for 4 days until confluence on RPMI 1640 medium with 10% fetal bovine serum (FBS) added thereto. The HL-60 cells were centrifuged. The supernatant was discarded, and the cells were then suspended at 1×10^6 cells/ml on RPMI 1640 medium with 3% FBS, and lipopolysaccharide was added to give a final concentration of 10 μg/ml. The culture was inoculated at 1 ml/well to a 24-well plate. A test sample was added at 1 μl/well, followed by culturing for 3 days. Three days later, the amount of interleukin-1β in each of the cultures was measured by ELISA. Its IC50 value was determined by a comparison in yield with a control to which no test sample was added.

First: COc1ccc(-c2cc(=O)n(CCN(C)C)nc2-c2ccc(OC)cc2)cc1 [Comp. Comp'd 3, reference compound]
Second: COc1ccc(-c2cc(=O)n(CCCc3ccc(C)cc3)nc2-c2ccc(OC)cc2)cc1 [Example 25, 5,6-bis(4-methoxyphenyl)-2-[3-(4-methylphenyl)propyl]-2H-pyridazin-3-one]
The IC50 of the first is higher: > 100000 nM for the first, 180 nM for the second.

Going from `COc1ccc(-c2cc(=O)[nH]nc2-c2ccc(OC)cc2)cc1` [Comp. Comp'd 4, reference compound] to `COc1ccc(-c2cc(=O)n(Cc3ccccc3)nc2-c2ccc(OC)cc2)cc1` [Example 13, 5,6-bis(4-methoxyphenyl)-2-benzyl-2H-pyridazin-3-one], the IC50 falls from 31600 nM to 260 nM (120-fold).

Compared with `COc1ccc(-c2cc(=O)n(CC=Cc3ccc(Cl)cc3)nc2-c2ccc(OC)cc2)cc1` [Example 12, 5,6-bis(4-methoxyphenyl)-2-(4-chlorocinnamyl)-2H-pyridazin-3-one], `COc1ccc(-c2cc(=O)n(CC=Cc3ccc(C)cc3)nc2-c2ccc(OC)cc2)cc1` [Example 24, 5,6-bis(4-methoxyphenyl)-2-(4-methylcinnamyl)-2H-pyridazin-3-one] is 2-fold higher in IC50: 100 nM for the first, 200 nM for the second. The first is the more potent here.

First: COc1ccc(Cn2nc(-c3ccc(OC)cc3)c(-c3ccc(OC)cc3)cc2=O)cc1 [Example 14, 5,6-bis(4-methoxyphenyl)-2-(4-methoxybenzyl)-2H-pyridazin-3-one]
Second: COc1ccc(CCCn2nc(-c3ccc(OC)cc3)c(-c3ccc(OC)cc3)cc2=O)cc1 [Example 23, 5,6-bis(4-methoxyphenyl)-2-[3-(4-methoxyphenyl)propyl]-2H-pyridazin-3-one]
The IC50 of the first is 3.8-fold lower: 94 nM for the first, 360 nM for the second. The first is the more potent here.

`COc1ccc(-c2cc(=O)n(Cc3cc(OC)c(OC)c(OC)c3)nc2-c2ccc(OC)cc2)cc1` [Example 16, 5,6-bis(4-methoxyphenyl)-2-(3,4,5-trimethoxybenzyl)-2H-pyridazin-3-one] and `COc1ccc(-c2cc(=O)n(Cc3ccc(OC)c(F)c3)nc2-c2ccc(OC)cc2)cc1` [Example 28, 5,6-bis(4-methoxyphenyl)-2-(3-fluoro-4-methoxybenzyl)-2H-pyridazin-3-one] are within 1.5-fold of each other in IC50: 230 nM for the first, 290 nM for the second.

First: COc1ccc(-c2cc(=O)n(CCCc3ccccc3)nc2-c2ccc(OC)cc2)cc1 [Example 19, 5,6-bis(4-methoxyphenyl)-2-(3-phenylpropyl)-2H-pyridazin-3-one]
Second: COc1ccc(-c2cc(=O)n(Cc3ccc(F)cc3)nc2-c2ccc(OC)cc2)cc1 [Example 26, 5,6-bis(4-methoxyphenyl)-2-(4-fluorobenzyl)-2H-pyridazin-3-one]
The IC50 of the first is 1.9-fold lower: 79 nM for the first, 150 nM for the second. The first is the more potent here.

`COc1ccc(-c2cc(=O)n(Cc3ccc(F)cc3F)nc2-c2ccc(OC)cc2)cc1` [Example 27, 5,6-bis(4-methoxyphenyl)-2-(2,4-difluorobenzyl)-2H-pyridazin-3-one] and `COc1ccc(-c2cc(=S)n(Cc3ccc(F)cc3F)nc2-c2ccc(OC)cc2)cc1` [Example 126, 5,6-bis(4-methoxyphenyl)-2-(2,4-difluorobenzyl)-2H-pyridazine-3-thione] are within 1.5-fold of each other in IC50: 180 nM for the first, 150 nM for the second.

First: COc1ccc(-c2cc(=O)n(CC=Cc3ccc(F)cc3)nc2-c2ccc(OC)cc2)cc1 [Example 30, 5,6-bis(4-methoxyphenyl)-2-(4-fluorocinnamyl)-2H-pyridazin-3-one]
Second: COc1ccc(-c2cc(=O)n(CC=Cc3ccc(F)cc3F)nc2-c2ccc(OC)cc2)cc1 [Example 31, 5,6-bis(4-methoxyphenyl)-2-(2,4-difluorocinnamyl)-2H-pyridazin-3-one]
The IC50 of the first is 1.8-fold higher: 170 nM for the first, 95 nM for the second.

`COc1ccc(-c2cc(=O)n(Cc3ccc(Cl)c(Cl)c3)nc2-c2ccc(OC)cc2)cc1` [Example 35, 5,6-bis(4-methoxyphenyl)-2-(3,4-dichlorobenzyl)-2H-pyridazin-3-one] and `COc1ccc(-c2cc(=O)n(CC=Cc3ccc(Cl)cc3Cl)nc2-c2ccc(OC)cc2)cc1` [Example 40, 5,6-bis(4-methoxyphenyl)-2-(2,4-dichlorocinnamyl)-2H-pyridazin-3-one] are within 1.5-fold of each other in IC50: 210 nM for the first, 270 nM for the second.

First: CSc1ccc(-c2nn(Cc3cccnc3)c(=O)cc2-c2ccc(Cl)cc2)cc1 [Example 55, 5-(4-chlorophenyl)-6-[4-(methylthio)phenyl]-2-(3-pyridylmethyl)-2H-pyridazin-3-one]
Second: CSc1ccc(-c2nn(Cc3cccnc3)c(=S)cc2-c2ccc(Cl)cc2)cc1 [Example 135, 5-(4-chlorophenyl)-6-[4-(methylthio)phenyl]-2-(3-pyridylmethyl)-2H-pyridazine-3-thione]
The IC50 of the first is 1.6-fold lower: 250 nM for the first, 390 nM for the second. The first is the more potent here.

`COc1ccc(-c2nn(Cc3ccc(Cl)cc3)c(=O)cc2-c2ccncc2)cc1` [Example 78, 2-(4-chlorobenzyl)-6-(4-methoxyphenyl)-5-(4-pyridyl)-2H-pyridazin-3-one] and `COc1ccc(-c2cc(=S)n(Cc3cccnc3)nc2-c2ccc(OC)cc2)cc1` [Example 128, 5,6-bis(4-methoxyphenyl)-2-(3-pyridylmethyl)-2H-pyridazine-3-thione] are within 1.5-fold of each other in IC50: 390 nM for the first, 310 nM for the second.

Tested on: not given
Experiment: not given
Details: not given

First: CSc1ccc(-c2nn(Cc3ccc(Cl)cc3Cl)c(=S)cc2-c2ccc(F)cc2)cc1 [Example 141, 2-(2,4-dichlorobenzyl)-5-(4-fluorophenyl)-6-[4-(methylthio)phenyl]-2H-pyridazine-3-thione]
Second: COc1ccc(-c2cc(=O)n(CC=Cc3ccc(Cl)cc3)nc2-c2ccc(OC)c(F)c2)cc1 [Example 145, 2-(4-chlorocinnamyl)-6-(3-fluoro-4-methoxyphenyl)-5-(4-methoxyphenyl)-2H-pyridazin-3-one]
The melting point of the first is higher: 154 to 154.2 °C for the first, 144 to 145.4 °C for the second.

Compared with `COc1ccc(-c2cc(=O)n(Cc3ccccc3)nc2-c2ccc(OC)c(F)c2)cc1` [Example 144, 2-benzyl-6-(3-fluoro-4-methoxyphenyl)-5-(4-methoxyphenyl)-2H-pyridazin-3-one], `COc1ccc(-c2nn(Cc3ccccc3)c(=O)cc2-c2ccc(OC)c(F)c2)cc1` [Example 151, 2-benzyl-5-(3-fluoro-4-methoxyphenyl)-6-(4-methoxyphenyl)-2H-pyridazin-3-one] is lower in melting point: 136.6 to 137.8 °C for the first, 109.6 to 111.6 °C for the second.

Compared with `CCn1nc(-c2ccc(OC)c(F)c2)c(-c2ccc(OC)cc2)cc1=O` [Example 146, 2-ethyl-6-(3-fluoro-4-methoxyphenyl)-5-(4-methoxyphenyl)-2H-pyridazin-3-one], `CCn1nc(-c2ccc(OC)cc2)c(-c2ccc(OC)c(F)c2)cc1=O` [Example 153, 2-ethyl-5-(3-fluoro-4-methoxyphenyl)-6-(4-methoxyphenyl)-2H-pyridazin-3-one] is higher in melting point: 122.6 to 123.5 °C for the first, 161.7 to 162.2 °C for the second.

Compared with `COc1ccc(-c2cc(=O)n(CC(C)C)nc2-c2ccc(OC)c(F)c2)cc1` [Example 147, 6-(3-fluoro-4-methoxyphenyl)-2-isobutyl-5-(4-methoxyphenyl)-2H-pyridazin-3-one], `COc1ccc(-c2nn(CC(C)C)c(=O)cc2-c2ccc(OC)c(F)c2)cc1` [Example 154, 5-(3-fluoro-4-methoxyphenyl)-2-isobutyl-6-(4-methoxyphenyl)-2H-pyridazin-3-one] is higher in melting point: 86.8 to 87.4 °C for the first, 124.6 to 125 °C for the second.

First: COc1ccc(-c2cc(=O)n(CC3CC3)nc2-c2ccc(OC)c(F)c2)cc1 [Example 148, 2-cyclopropylmethyl-6-(3-fluoro-4-methoxyphenyl)-5-(4-methoxyphenyl)-2H-pyridazin-3-one]
Second: COc1ccc(-c2nn(CC3CC3)c(=O)cc2-c2ccc(OC)c(F)c2)cc1 [Example 155, 2-cyclopropylmethyl-5-(3-fluoro-4-methoxyphenyl)-6-(4-methoxyphenyl)-2H-pyridazin-3-one]
The melting point of the first is lower: 132.2 to 132.6 °C for the first, 135.2 to 135.7 °C for the second.

Compared with `COc1ccc(C2=NNC(=O)CC2c2ccc(OC)c(F)c2)cc1` (centres unmarked) [Example 149, 4,5-dihydro-5-(3-fluoro-4-methoxyphenyl)-6-(4-methoxyphenyl)-2H-pyridazin-3-one], `COc1ccc(C2=NNC(=O)CC2c2ccc(OC)c(F)c2)cc1F` (centres unmarked) [Example 156, 5,6-bis(3-fluoro-4-methoxyphenyl)-4,5-dihydro-2H-pyridazin-3-one] is higher in melting point: 171.2 to 173.4 °C for the first, 195.7 to 197.7 °C for the second.

Compared with `COc1ccc(-c2n[nH]c(=O)cc2-c2ccc(OC)c(F)c2)cc1` [Example 150, 5-(3-fluoro-4-methoxyphenyl)-6-(4-methoxyphenyl)-2H-pyridazin-3-one], `COc1ccc(-c2cc(=O)[nH]nc2-c2ccc(OC)c(F)c2)cc1F` [Example 157, 5,6-bis(3-fluoro-4-methoxyphenyl)-2H-pyridazin-3-one] is lower in melting point: 212.8 to 213.4 °C for the first, 204.8 to 205.7 °C for the second.

Compared with `COc1ccc(-c2nn(CC=Cc3ccc(Cl)cc3)c(=O)cc2-c2ccc(OC)c(F)c2)cc1` [Example 152, 2-(4-chlorocinnamyl)-5-(3-fluoro-4-methoxyphenyl)-6-(4-methoxyphenyl)-2H-pyridazin-3-one], `COc1ccc(-c2cc(=O)n(CC=Cc3ccc(Cl)cc3)nc2-c2ccc(OC)c(F)c2)cc1F` [Example 159, 5,6-bis(3-fluoro-4-methoxyphenyl)-2-(4-chlorocinnamyl)-2H-pyridazin-3-one] is lower in melting point: 109.2 to 111 °C for the first, 72.5 to 74.9 °C for the second.

First: COc1ccc(-c2cc(=O)n(Cc3ccccc3)nc2-c2ccc(OC)c(F)c2)cc1F [Example 158, 2-benzyl-5,6-bis(3-fluoro-4-methoxyphenyl)-2H-pyridazin-3-one]
Second: COc1ccc(-c2cc(=O)n(CC(C)C)nc2-c2ccc(OC)c(F)c2)cc1F [Example 161, 5,6-bis(3-fluoro-4-methoxyphenyl)-2-isobutyl-2H-pyridazin-3-one]
The melting point of the first is lower: 114.1 to 115.2 °C for the first, 154 to 154.5 °C for the second.

In the case of `COc1ccc(-c2cc(=O)n(CC3CC3)nc2-c2ccc(OC)c(F)c2)cc1F` [Example 162, 5,6-bis(3-fluoro-4-methoxyphenyl)-2-cyclopropylmethyl-2H-pyridazin-3-one], the melting point is reported as 142.3 to 142.7 °C.
